From ChEMBL document CHEMBL4825673, “Total and Semisyntheses of Polymyxin Analogues with 2-Thr or 10-Thr Modifications to Decipher the Structure-Activity Relationship and Improve the Antibacterial Activity” (J Med Chem, 2021)
≈ marks a conversion by molar mass, not a printed value. Positions of bridges follow the written chain, without caps; N, C: chain ends. Non-standard residues stand in square brackets, D forms with d. Residues, ends and D or L forms follow the SMILES beside them. *: point of attachment. Benzoyl(4-Ph) = O=C(c1ccc(-c2ccccc2)cc1)*; Octanoyl = CCCCCCCC(=O)*; Dab = NCC[C@H](N)C(=O)O

Key:
Escherichia coli [1] = experiment: Antibacterial activity against Escherichia coli ECO+14-2 assessed as inhibition of bacterial growth incubated for 24 hrs by broth microdilution method; format: functional; details: read-out: MIC100
Acinetobacter baumannii [2] = experiment: Antibacterial activity against Acinetobacter baumannii ABA15-5 assessed as inhibition of bacterial growth incubated for 24 hrs by broth microdilution method; format: functional; details: read-out: MIC100
Klebsiella pneumoniae [3] = experiment: Antibacterial activity against Klebsiella pneumoniae KPN+14-10 assessed as inhibition of bacterial growth incubated for 24 hrs by broth microdilution method; format: functional; details: read-out: MIC100
Pseudomonas aeruginosa [4] = experiment: Antibacterial activity against Pseudomonas aeruginosa ATCC 27853 assessed as inhibition of bacterial growth incubated for 24 hrs by broth microdilution method; format: functional; details: read-out: MIC100
Pseudomonas aeruginosa [5] = experiment: Antibacterial activity against Pseudomonas aeruginosa PAE15-3 assessed as inhibition of bacterial growth incubated for 24 hrs by broth microdilution method; format: functional; details: read-out: MIC100
Moraxella catarrhalis [6] = experiment: Antibacterial activity against Moraxella catarrhalis BCA15-3 assessed as inhibition of bacterial growth incubated for 24 hrs by broth microdilution method; format: functional; details: read-out: MIC100
Acinetobacter baumannii [7] = experiment: Antibacterial activity against Acinetobacter baumannii AR15-4 assessed as inhibition of bacterial growth incubated for 24 hrs by broth microdilution method; format: functional; details: read-out: MIC100
Pseudomonas aeruginosa [8] = experiment: Antibacterial activity against Pseudomonas aeruginosa PAE15-8 assessed as inhibition of bacterial growth incubated for 24 hrs by broth microdilution method; format: functional; details: read-out: MIC100
Klebsiella pneumoniae [9] = experiment: Antibacterial activity against Klebsiella pneumoniae KR15-2 assessed as inhibition of bacterial growth incubated for 24 hrs by broth microdilution method; format: functional; details: read-out: MIC100
Pseudomonas aeruginosa [10] = experiment: Antibacterial activity against Pseudomonas aeruginosa PAE15-14 assessed as inhibition of bacterial growth incubated for 24 hrs by broth microdilution method; format: functional; details: read-out: MIC100
Pseudomonas aeruginosa [11] = experiment: Antibacterial activity against Pseudomonas aeruginosa assessed as inhibition of bacterial growth incubated for 24 hrs by broth microdilution method; format: functional; details: read-out: MIC100
Acinetobacter baumannii [12] = experiment: Antibacterial activity against Acinetobacter baumannii ABA15-4 assessed as inhibition of bacterial growth incubated for 24 hrs by broth microdilution method; format: functional; details: read-out: MIC100
Klebsiella pneumoniae [13] = experiment: Antibacterial activity against Klebsiella pneumoniae KPN+14-8 assessed as inhibition of bacterial growth incubated for 24 hrs by broth microdilution method; format: functional; details: read-out: MIC100
Pseudomonas aeruginosa [14] = experiment: Antibacterial activity against Pseudomonas aeruginosa PR15-1 assessed as inhibition of bacterial growth incubated for 24 hrs by broth microdilution method; format: functional; details: read-out: MIC100
Acinetobacter baumannii [15] = experiment: Antibacterial activity against Acinetobacter baumannii assessed as inhibition of bacterial growth incubated for 24 hrs by broth microdilution method; format: functional; details: read-out: MIC100
Escherichia coli [16] = experiment: Antibacterial activity against Escherichia coli ECO+14-3 assessed as inhibition of bacterial growth incubated for 24 hrs by broth microdilution method; format: functional; details: read-out: MIC100
Acinetobacter baumannii [17] = experiment: Antibacterial activity against Acinetobacter baumannii ABA15-6 assessed as inhibition of bacterial growth incubated for 24 hrs by broth microdilution method; format: functional; details: read-out: MIC100
Moraxella catarrhalis [18] = experiment: Antibacterial activity against Moraxella catarrhalis BCA14-7 assessed as inhibition of bacterial growth incubated for 24 hrs by broth microdilution method; format: functional; details: read-out: MIC100
Klebsiella pneumoniae [19] = experiment: Antibacterial activity against Klebsiella pneumoniae assessed as inhibition of bacterial growth incubated for 24 hrs by broth microdilution method; format: functional; details: read-out: MIC100
Escherichia coli [20] = experiment: Antibacterial activity against Escherichia coli ECO-14-2 assessed as inhibition of bacterial growth incubated for 24 hrs by broth microdilution method; format: functional; details: read-out: MIC100
Moraxella catarrhalis [21] = experiment: Antibacterial activity against Moraxella catarrhalis assessed as inhibition of bacterial growth incubated for 24 hrs by broth microdilution method; format: functional; details: read-out: MIC100
Pseudomonas aeruginosa [22] = experiment: Antibacterial activity against Pseudomonas aeruginosa PAO1 assessed as inhibition of bacterial growth incubated for 24 hrs by broth microdilution method; format: functional; details: read-out: MIC100
Escherichia coli [23] = experiment: Antibacterial activity against Escherichia coli assessed as inhibition of bacterial growth incubated for 24 hrs by broth microdilution method; format: functional; details: read-out: MIC100
Pseudomonas aeruginosa [24] = experiment: Antibacterial activity against Pseudomonas aeruginosa PAE15-5 assessed as inhibition of bacterial growth incubated for 24 hrs by broth microdilution method; format: functional; details: read-out: MIC100
HK-2 = experiment: Cytotoxicity against human HK-2 cells assessed as cell viability incubated for 72 hrs by CCK-8 assay; format: cell-based; details: hk-2, 72 h

| Structure (SMILES) | MIC (Escherichia coli [1]) [µg/mL] | MIC (Acinetobacter baumannii [2]) [µg/mL] | MIC (Klebsiella pneumoniae [3]) [µg/mL] | MIC (Pseudomonas aeruginosa [5]) [µg/mL] | MIC (Moraxella catarrhalis [6]) [µg/mL] | MIC (Acinetobacter baumannii [7]) [µg/mL] | MIC (Pseudomonas aeruginosa [8]) [µg/mL] | MIC (Klebsiella pneumoniae [9]) [µg/mL] | MIC (Pseudomonas aeruginosa [10]) [µg/mL] | MIC (Pseudomonas aeruginosa [11]) [µg/mL] | MIC (Acinetobacter baumannii [12]) [µg/mL] | MIC (Klebsiella pneumoniae [13]) [µg/mL] | MIC (Pseudomonas aeruginosa [14]) [µg/mL] | MIC (Escherichia coli [16]) [µg/mL] | MIC (Acinetobacter baumannii [17]) [µg/mL] | MIC (Moraxella catarrhalis [18]) [µg/mL] | MIC (Klebsiella pneumoniae [19]) [µg/mL] | MIC (Escherichia coli [20]) [µg/mL] | MIC (Moraxella catarrhalis [21]) [µg/mL] | MIC (Pseudomonas aeruginosa [22]) [µg/mL] | also measured |
| --- | --- | --- | --- | --- | --- | --- | --- | --- | --- | --- | --- | --- | --- | --- | --- | --- | --- | --- | --- | --- | --- |
| CC(C)C[C@@H]1NC(=O)[C@@H](Cc2ccccc2)NC(=O)[C@H](CCN)NC(=O)[C@@H](NC(=O)[C@H](CCN)NC(=O)[C@@H](NC(=O)[C@H](CCN)NC(=O)c2ccc(-c3ccccc3)cc2)[C@@H](C)O)CCNC(=O)[C@H]([C@@H](C)O)NC(=O)[C@H](CCN)NC(=O)[C@H](CCN)NC1=O ({Benzoyl(4-Ph)}-[Dab]T[Dab][Dab][Dab][dF]L[Dab][Dab]T; lactam 4-C) | 2 (≈ 1.61 µM) | 0.06 (≈ 0.0483 µM) | 2 (≈ 1.61 µM) | 0.5 (≈ 0.402 µM) | 1 (≈ 0.804 µM) | 0.06 (≈ 0.0483 µM) | 0.125 (≈ 0.101 µM) | 2 (≈ 1.61 µM) | 0.125 (≈ 0.101 µM) | 0.06 (≈ 0.0483 µM) | 0.06 (≈ 0.0483 µM) | 4 (≈ 3.22 µM) | 5 (≈ 4.02 µM) | 1 (≈ 0.804 µM) | 0.125 (≈ 0.101 µM) | 16 (≈ 12.9 µM) | 2 (≈ 1.61 µM) | 0.5 (≈ 0.402 µM) | 8 (≈ 6.43 µM) | 4 (≈ 3.22 µM) | MIC (Pseudomonas aeruginosa [4]): 0.06 µg/mL (≈ 0.0483 µM); MIC (Acinetobacter baumannii [15]): 0.06 µg/mL (≈ 0.0483 µM); MIC (Escherichia coli [23]): 0.5 µg/mL (≈ 0.402 µM); MIC (Pseudomonas aeruginosa [24]): 0.125 µg/mL (≈ 0.101 µM) |
| CCCCCCCC(=O)N[C@@H](CCN)C(=O)N[C@H](C(=O)N[C@@H](CCN)C(=O)N[C@H]1CCNC(=O)[C@H]([C@@H](C)O)NC(=O)[C@H](CCN)NC(=O)[C@H](CCN)NC(=O)[C@H](CC(C)C)NC(=O)[C@@H](Cc2ccccc2)NC(=O)[C@H](CCN)NC1=O)[C@@H](C)O (Octanoyl-[Dab]T[Dab][Dab][Dab][dF]L[Dab][Dab]T; lactam 4-C) | 2 (≈ 1.68 µM) | 0.125 (≈ 0.105 µM) | 2 (≈ 1.68 µM) | 0.25 (≈ 0.21 µM) | 1 (≈ 0.841 µM) | 0.06 (≈ 0.0504 µM) | 0.25 (≈ 0.21 µM) | 2 (≈ 1.68 µM) | 0.25 (≈ 0.21 µM) | 0.03 (≈ 0.0252 µM) | < 0.03 | 8 (≈ 6.73 µM) | 0.25 (≈ 0.21 µM) | 0.25 (≈ 0.21 µM) | < 0.03 | 32 (≈ 26.9 µM) | 2 (≈ 1.68 µM) | 0.25 (≈ 0.21 µM) | 16 (≈ 13.5 µM) | 4 (≈ 3.36 µM) | MIC (Acinetobacter baumannii [15]): 0.03 µg/mL (≈ 0.0252 µM); MIC (Escherichia coli [23]): 0.25 µg/mL (≈ 0.21 µM); MIC (Pseudomonas aeruginosa [24]): 0.125 µg/mL (≈ 0.105 µM) |
| CC(C)CCCCC(=O)N[C@@H](CCN)C(=O)N[C@H](C(=O)N[C@@H](CCN)C(=O)N[C@H]1CCNC(=O)[C@H]([C@@H](C)O)NC(=O)[C@H](CCN)NC(=O)[C@H](CCN)NC(=O)[C@H](CC(C)C)NC(=O)[C@@H](Cc2ccccc2)NC(=O)[C@H](CCN)NC1=O)[C@@H](C)OC(=O)[C@@H]1CCCN1 | 0.5 (≈ 0.389 µM) | 0.03 (≈ 0.0233 µM) | 0.5 (≈ 0.389 µM) | 0.5 (≈ 0.389 µM) | 1 (≈ 0.777 µM) | 0.03 (≈ 0.0233 µM) | 0.5 (≈ 0.389 µM) | 0.5 (≈ 0.389 µM) | 0.25 (≈ 0.194 µM) | 0.03 (≈ 0.0233 µM) | 0.03 (≈ 0.0233 µM) | 1 (≈ 0.777 µM) | 0.25 (≈ 0.194 µM) | 0.125 (≈ 0.0972 µM) | < 0.015 | 32 (≈ 24.9 µM) | 0.5 (≈ 0.389 µM) | 0.06 (≈ 0.0466 µM) | > 32 | 1 (≈ 0.777 µM) | MIC (Pseudomonas aeruginosa [4]): 0.03 µg/mL (≈ 0.0233 µM); Activity (HK-2): Non-Toxic; MIC (Escherichia coli [23]): 0.06 µg/mL (≈ 0.0466 µM); MIC (Pseudomonas aeruginosa [24]): 0.25 µg/mL (≈ 0.194 µM) |
